Assay results taken from PubChem BioAssay (NCI).
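Where inhibition never reached the appropriate level, the endpoint shown equals the highest concentration tested. Otherwise, values were interpolated linearly from a five-concentration, 48-hour dose response in 96-well plates. At the GI50, growth is halved. TGI marks complete inhibition of growth.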

Experiments:
Assay in all cases: inhibition of tumour cell growth, NCI panel, 48 h
CAKI-1 renal = tested on: CAKI-1 renal
CCRF-CEM leukemia = tested on: CCRF-CEM leukemia
COLO 205 colon = tested on: COLO 205 colon
HOP-92 NSCLC = tested on: HOP-92 NSCLC
MALME-3M melanoma = tested on: MALME-3M melanoma
SF-268 CNS = tested on: SF-268 CNS
UO-31 renal = tested on: UO-31 renal
A549 NSCLC = tested on: A549 NSCLC
RXF 393 renal = tested on: RXF 393 renal
UACC-257 melanoma = tested on: UACC-257 melanoma

Compound	TGI (CAKI-1 renal)	TGI (CCRF-CEM leukemia)	TGI (COLO 205 colon)	TGI (HOP-92 NSCLC)	TGI (MALME-3M melanoma)	TGI (SF-268 CNS)	TGI (UO-31 renal)	TGI (A549 NSCLC)	TGI (RXF 393 renal)	TGI (UACC-257 melanoma)	GI50 (A549 NSCLC)	GI50 (CAKI-1 renal)	GI50 (CCRF-CEM leukemia)	GI50 (COLO 205 colon)	GI50 (MALME-3M melanoma)	GI50 (RXF 393 renal)	GI50 (SF-268 CNS)	GI50 (UACC-257 melanoma)	GI50 (UO-31 renal)	GI50 (HOP-92 NSCLC)
c1ccc2c(c1)nc1n2CSC1	> 100 µM	> 100 µM	> 100 µM	> 100 µM	> 100 µM	> 100 µM	> 100 µM	–	–	–	–	–	–	–	–	–	–	–	–	–
CC1=C[C@]2(CC(C)C3C(CC4(C)C5CCC6C(C)(C)C(=O)CC[C@@]67C[C@@]57CC[C@]34C)O2)OC1=O (some centres undefined)	62.2 µM	> 100 µM	> 100 µM	45.7 µM	> 100 µM	> 100 µM	–	> 100 µM	21.8 µM	> 100 µM	–	–	–	–	–	–	–	–	–	–
Cc1nc2ccccc2c(=O)n1CC(=O)O	> 100 µM	> 100 µM	> 100 µM	> 100 µM	> 100 µM	> 100 µM	> 100 µM	> 100 µM	> 100 µM	> 100 µM	–	–	–	–	–	–	–	–	–	–
CCN(CC)CCCC(Nc1c2ccc(Cl)cc2nc2ccc(OC)cc12)c1ccc(F)cc1 (centres undefined)	3.79 µM	6.49 µM	4.53 µM	–	3.68 µM	5.33 µM	3.15 µM	5.99 µM	3.13 µM	4.1 µM	2.44 µM	1.73 µM	2.4 µM	2.05 µM	1.99 µM	1.51 µM	2.28 µM	2.02 µM	1.56 µM	–
Cc1cccc2c(N)c3cccc(C(=O)NCCN(C)C)c3nc12	1.08 µM	0.0324 µM	0.229 µM	2.94 µM	0.606 µM	2.41 µM	0.81 µM	3.5 µM	0.479 µM	0.658 µM	–	–	–	–	–	–	–	–	–	–
CCCCN(CCCC)CCCCNc1c(C)cnc2cc(Cl)ccc12	–	> 100 µM	> 100 µM	36.2 µM	36.1 µM	85.3 µM	25.1 µM	> 100 µM	31 µM	32.5 µM	–	–	–	–	–	–	–	–	–	–
Nc1ncnc2c1ncn2C1CCC(CO)O1 (centres undefined)	> 100 µM	> 100 µM	> 100 µM	> 86.4 µM	> 100 µM	> 87.7 µM	> 100 µM	> 100 µM	> 100 µM	> 100 µM	–	–	–	–	–	–	–	–	–	–
[C-]#[O+].[Cl][Sn]([Cl])[Cl].[Cl][Sn]([Cl])[Cl].[Pt].c1ccncc1	> 100 µM	> 100 µM	> 100 µM	> 100 µM	> 100 µM	> 100 µM	> 100 µM	> 100 µM	> 100 µM	> 100 µM	–	–	–	–	–	–	–	–	–	–
CO/N=C1/c2sccc2[C@H](NC(=O)C(F)(F)F)[C@@H]1O	> 100 µM	> 100 µM	> 100 µM	> 100 µM	> 100 µM	> 100 µM	> 100 µM	> 100 µM	> 100 µM	> 100 µM	–	–	–	–	–	–	–	–	–	–
CCOc1ccc(/C=C/[N+](=O)[O-])cc1	> 100 µM	52.3 µM	15.5 µM	28.1 µM	36.9 µM	28.6 µM	28.8 µM	27.7 µM	3.56 µM	24 µM	12.6 µM	37 µM	3.23 µM	4.71 µM	19 µM	1.79 µM	14.1 µM	11.2 µM	13.8 µM	12.9 µM
CC(/C=C/c1ccc([N+](=O)[O-])o1)=N/N1CC(CN2CCOCC2)OC1=O (centres undefined)	40.7 µM	47.3 µM	29.8 µM	30.5 µM	41.3 µM	51.9 µM	45.4 µM	98.5 µM	–	36.5 µM	–	–	–	–	–	–	–	–	–	–
CCOP(=O)(OCC)C(Cc1ccc(OC)c(OC)c1)N=C(c1ccccc1)c1ccccc1 (centres undefined)	> 100 µM	96.9 µM	38.1 µM	> 100 µM	–	> 100 µM	> 100 µM	> 100 µM	> 100 µM	> 100 µM	–	–	–	–	–	–	–	–	–	–
CC(C)=CCc1c(C)cc2cc3c(c(O)c2c1O)C(O)=CC(=O)C3(CC=C(C)C)C/C=C(\C)CO (centres undefined)	91.3 µM	60.1 µM	80.1 µM	75.6 µM	63.8 µM	85.4 µM	64.4 µM	77 µM	63.4 µM	82.6 µM	–	–	–	–	–	–	–	–	–	–
COc1cc2c3c(n(CCN(C)C)c(=O)c2cc1OC)-c1cc2c(cc1C3=O)OCO2	44.3 µM	1.61 µM	> 100 µM	> 100 µM	> 52.6 µM	> 100 µM	> 100 µM	> 100 µM	> 57.9 µM	> 100 µM	0.799 µM	0.747 µM	0.294 µM	–	6.17 µM	–	0.677 µM	12.6 µM	9.3 µM	26.7 µM
COc1ccc(/C=N/NC(=O)NCCCN(C)C)cc1	–	> 100 µM	–	–	> 100 µM	> 100 µM	> 100 µM	> 100 µM	> 100 µM	> 100 µM	–	–	–	–	–	–	–	–	–	–
CN1CCN(Cc2ccc(NC(=O)c3ccc(C#N)c(C#Cc4cnc(N)c5ncccc45)c3)cc2C(F)(F)F)CC1	5.04 µM	–	> 100 µM	58.1 µM	–	–	2.99 µM	–	–	–	–	1.91 µM	–	4.02 µM	–	–	–	–	1.6 µM	12.2 µM
CC(C)=CC(=O)OC1C2C(C)C(=O)OC2C(O)C(C)C2C=CC(=O)C21C (centres undefined)	7.71 µM	8.18 µM	5.83 µM	8.85 µM	8.28 µM	8.42 µM	10.5 µM	33.6 µM	3.68 µM	8.4 µM	–	–	–	–	–	–	–	–	–	–
C[C@]12C=CC(=O)C=C1CC[C@@H]1[C@@H]2C(=O)C[C@@]2(C)[C@H]1CC[C@]2(O)C(=O)CO	> 100 µM	> 100 µM	> 100 µM	> 100 µM	> 100 µM	> 100 µM	> 100 µM	> 100 µM	> 100 µM	> 100 µM	–	–	–	–	–	–	–	–	–	–
Cc1ccc(S(=O)(=O)Oc2cc(S(=O)(=O)O)cc3cc(S(=O)(=O)O)cc(N)c23)cc1	> 100 µM	> 100 µM	> 100 µM	> 100 µM	> 100 µM	> 100 µM	> 100 µM	> 100 µM	> 100 µM	> 100 µM	–	–	–	–	–	–	–	–	–	–
